# Measured values taken from patent US4330529A, “Antibacterial composition” (Fujisawa Pharmaceutical Co., Ltd., priority 1979, dated 1982).
# Columns and labels:
# Type in all cases: cell-based
# Escherichia coli 82 = assay: MIC and FIC, Nutrient agar (Test 7); conditions: E. coli 82, 18 h
# Experimental: (§1) FIC values and FIC Index were calculated in substantially the same manner as described in Test 1.
# [1] = system: Pseudomonas aeruginosa No.11; assay: MIC and FIC, Nutrient agar, multiple inoculator (Test 5); conditions: Pseudomonas aeruginosa; P. aeruginosa No.11; 10^8 cells/ml, 20 h; read-out: MIC
# Experimental: (§2) After the incubation was carried out at 37° C. for 20 hours, MIC values were determined.
# as §1
# Escherichia coli No.14 = assay: MIC and FIC, Nutrient agar, multiple inoculator (Test 4); conditions: E. coli No.14, 10^8 cells/ml, 20 h
# Experimental: as §2
# [2] = system: Alcaligenes faecalis 1311-1; assay: MIC and FIC, Nutrient agar (Test 2); conditions: 13111, A. faecalis 1311-1, 20 h
# Experimental: as §2, §1
# Escherichia coli 116 = assay: MIC and FIC, Nutrient agar (Test 7); conditions: E. coli 116, 18 h
# Experimental: as §1
# Proteus vulgaris 22 = assay: MIC and FIC, Nutrient agar (Test 9); conditions: P. vulgaris 22, 18 h
# Experimental: as §1
# Citrobacter freundii 63 = assay: MIC and FIC, Nutrient agar (Test 9); conditions: C. freundii 63, 18 h
# Experimental: as §1
# Enterobacter aerogenes 7 = assay: MIC and FIC, Nutrient agar (Tests 6, 7, 9); conditions: Klebsiella aerogenes; E. aerogenes 7; 18 h; read-out: MIC
# Experimental: as §1
# [3] = system: Pseudomonas aeruginosa No.14; assay: MIC and FIC, Nutrient agar, multiple inoculator (Test 4); conditions: P. aeruginosa No.14, 10^8 cells/ml, 20 h
# Experimental: as §2, §1
# [4] = system: Pseudomonas aeruginosa No.12; assay: MIC and FIC, Nutrient agar, multiple inoculator (Test 5); conditions: Pseudomonas aeruginosa; P. aeruginosa No.12; 10^8 cells/ml, 20 h; read-out: MIC
# Experimental: as §2, §1
# [5] = system: Pseudomonas aeruginosa No.18; assay: as above; conditions: Pseudomonas aeruginosa; P. aeruginosa No.18; 10^8 cells/ml, 20 h; read-out: MIC
# Experimental: as §2, §1
structure (smiles),measurement,setting,value
O=CN(O)CCCP(=O)(O)O [A (Table 2)],MIC,Escherichia coli 82,100 µg/mL
same,MIC,[1],> 800 µg/mL
same,MIC,Escherichia coli No.14,25 µg/mL
same,MIC,[2],≥ 400 µg/mL
same,MIC,Escherichia coli 116,200 µg/mL
same,MIC,Proteus vulgaris 22,6.25 µg/mL
same,MIC,Citrobacter freundii 63,50 µg/mL
same,MIC,Enterobacter aerogenes 7,100 µg/mL
same,MIC,[3],400 µg/mL
same,MIC,[4],800 µg/mL
same,MIC,[5],> 800 µg/mL
